The subject of assay [1] is Na^+-K^+-ATPase. Description: Activity-dependent change of Cli after postsynaptic action potential trains in CA1 pyramidal neurons. The assay is classed as cell-based, rat. The conditions noted are these: in the presence of DHO 10 μM; 20 Hz, 2.5 min trains; P=0.27. As to the method: The GABAB receptor antagonist CGP 55845A (1 μM) was included in the bath for most experiments. Bumetanide was stored as a 50 mM stock solution in ethanol at 4° C. and then diluted to 10 μM in ACSF. Dihydroouabain (10 μM) was diluted into ACSF and bath applied.
Action potentials in current-clamped neurons was invoked by injecting depolarizing current pulses (1.5 ms, 2 nA) at 20 Hz for 2.5 min.
Persistent increases in Cli and the GABA reversal potential have been observed following trains of action potentials. Action potential trains have long been known to cause long-lasting increases in the activity of Na^+—K^+-ATPase and corresponding changes in RMP. If NKCCl-mediated transport were thermodynamically limited, then the changes in ECl observed following action potential trains could be due to altered Na^+ and K^+ transmembrane gradients. Without being bound by any theory, it is believed that of the two cations, Nai would be most labile and would have the most influence on the Cli at which NKCCl-mediated transport reached equilibrium. Steady-state ECl and Cl^− transport kinetics were measured before and after a 20 Hz, 2.5 minute train of action potentials. […]
FIGS. 10A-10D show activity-dependent increases in Cli. FIG. 10A is a graph showing that following a train of action potentials in the recorded cell (20 Hz, 2.5 min), Cli reached a new steady state. […]

The test system of assay [2] is low-Mg^2+ induced recurrent seizures in the intact hippocampus. Put plainly: Low-Mg2+ ACSF induced recurrent seizures in the intact hippocampus in vitro. The assay is classed as cell-based, rat. The note with it: phenobarbital 100 μM. The text has this: High expression level of the Na^+ K^+-2Cl^− (NKCCl) co-transporter in immature neurons causes the accumulation of chloride ions and a depolarized Cl^− equilibrium potential (ECl). This is linked to a higher seizure propensity and poor EEG response in neonates to the barbiturates and benzodiazepines, conventional anticonvulsant drugs that target Cl^−-permeable GABAA-receptor (GABAA-R) operated channels. […] Recurrent ictal-like seizures were induced by low-Mg^+ ACSF in intact hippocampal preparations in vitro. […] Bumetanide decreased both seizure frequency and seizure power.
FIGS. 11A-11C are graphs of low-Mg^2+πinduced recurrent seizures in the intact hippocampus in vitro. […] First and last seizures from 5 hour recording are shown on an expanded time scale. Right, corresponding power spectra in the 0.1-1000 Hz frequency band. […] Summary data are taken from ten hippocampi. […] Power of the first seizure in each recording was considered as 100%. Data are taken from 18 recordings in 10 preparations from P4-6 rats.
FIGS. 12A-12C are graphs showing low efficiency of phenobarbital in neonatal seizures. FIG. 12A is a graph showing extracellular field potential recording in the CA3 pyramidal cell layer in the intact hippocampus of a P5 rat. Continuous application of low-Mg^2+ ACSF induced recurrent tonic-clonic seizures. […] The right portion corresponds to power spectra in the 0.1-1000 Hz frequency range. […] Data are from ten experiments that were combined. FIG. 12C is a graph showing power of recurrent seizures before, during and after phenobarbital application. Power of the first seizure in each recording was considered as 100%. Seizures were not depressed by phenobarbital indicating its low efficiency.
FIGS. 13A-13C are graphs showing that alteration of Cl^−-transport by bumetanide enhanced efficacy of phenobarbital in neonatal seizures. FIG. 13A is a graph of extracellular field potential recording in the CA3 pyramidal cell layer in the intact hippocampus of a P5 rat. Application of low-Mg^2+ ACSF induced recurrent seizures. […] These are shown on an expanded time scale. The right portion of FIG. 13A is a power spectra of extracellular field potential activity before and during application of drugs. FIG. 13B is a graph showing inter-seizure intervals before, during and after application of drugs. In 75% of experiments seizures were abolished (ISI>120 min) by simultaneous application of phenobarbital and bumetanide. FIG. 13C is a graph showing power of recurrent seizures before, during and after simultaneous application of phenobarbital and bumetanide. Power of the first seizure in each recording was considered as 100%. Seizures were depressed by combination of drugs.
FIGS. 14A and 14B are graphs showing alteration of Cl^−-transport for early-life seizure therapy. […]

The test system of assay [3] is KA-induced rat seizures. Put plainly: Kainic acid (KA) induced seizures in rat pups, EEG recording in vivo. The note with it: KA 2 mg/kg s.c. An excerpt:
Kainic Acid (KA) is a commonly used agent for creating an in vivo neonatal-like seizure model in rats for study. It is believed that this seizure model closely parallels human neonatal seizure disorders. KA, a glutamate receptor agonist, was used to induce neonatal-like seizures in postnatal (P) 7-12 day male Wistar rats. The rats were equipped with electrodes including recording and reference electrodes by standard means. There are many known methods for measuring parameters of seizures, in this example electrical signals were digitized using an analogue-to-digital converter for example a DigiData 1322A (Axon Instuments USA). The sampling interval can vary depending on the desired target interval. In this example, the sampling interval per signal was 200 […]s (5 kHz). For data analysis, several computer programs exist for capturing and analyzing these seizure parameters such as Clamp 9.2 (Axon Instruments, USA) and Origon 5.0 (Microcal Software, USA) used here. Interictal spikes were determined by typical means utilizing band-pass filtered raw data.
Many known methods exist for analyzing the power levels of different frequency components in a signal such as a signal recorded from a seizure episode. For example, power spectrum analysis can be performed after applying a Hamming window function. Unless otherwise indicated, power was calculated in 1-2 min time windows by integrating the root mean square value of the signal in frequency bands from 1 to 100 Hz (EEC band) and from 200 to 500 Hz (fast ripple band).
Pharmaceutical compositions of the present invention can be administered to seizure-induced rats to test the seizure modulatory properties of the pharmaceutical composition. In one exemplary method, the inhibition of NKCCl and its affect on seizures in rat pups was studied. Two days after implantation of recording electrodes, six P9-P10 rats received subcutaneous injection of KA (2 mg/kg) and six P9-10 control rats received subcutaneous 0.9% sodium chloride saline injections. 10-20 minutes after KA injection regular pattern of behavioral signs started, involving scratching-like movements of the hindpaws, loss of balance and turning on the side. Recurrent interictal and ictal electroencephalographic patterns occurred 20-80 minutes (61.2±10.4 min; mean±se) after KA injection in all rats from this experimental group (FIG. 4B). […] Interictal spikes usually occurred synchronously in the left and right hemispheres. Frequency of the interictal spikes was 1.43±0.06 Hz (n=23 seizures in 6 rats). Before transition to ictal patterns, interictal spikes were usually followed by fast ripple (100-500 Hz) and gamma-frequency oscillations (20-50 Hz). Tonic-clonic seizures were the most common type of seizures induced by KA in P9-10 rats. Ictal-tonic phase lasted 12.6±1.4 s (16 seizures in 5 rats). Population spikes of 18.7±1.2 Hz were characteristic of the tonic phase of KA-induced seizures (FIG. 4C). Tonic discharges were followed by clonic bursts (FIG. 4C). Large amplitude population spikes followed by 100-200 Hz ripples and 200-1200 ms gamma frequency after discharges characterized the clonic bursts. The mean duration of the clonic phase was 36.4±5 s (25 seizures in 6 rats). The ictal patterns were followed by postictal depression (FIG. 4 B-4C). During ictal EEG activity, motor activity consisted of scratching, jerky movements, turning on the side or on the back and frequent tail shaking. Five to ten recurrent seizures with an average interval 379±24.5 s were followed by periodic epileptiform discharges (PLEDs) (FIG. 4D).
In one exemplary experiment, a pharmaceutical composition of the present invention comprising bumetanide was compared to phenobarbital for effects on KA-induced rat seizures. Two days after implantation of recording electrodes, twenty-two P9-12 age-matched rats received subcutaneous injection with KA (2 mg/kg). […]

[4] abbreviates: P9-12 rats, phenobarbital 25 mg/kg or bumetanide 0.1-0.2 mg/kg i.p.

From US20070043034A1, “Chlorine Ion Uptake Modulators and Uses Thereof” (priority 2005, published 2007) come the findings set out here.

For `C[C@@H]1O[C@@H](O[C@H]2C[C@@H](O)[C@]3(CO)[C@H]4[C@H](O)C[C@]5(C)[C@@H]([C@@H]6COC(=O)C6)CC[C@]5(O)[C@@H]4CC[C@]3(O)C2)[C@H](O)[C@H](O)[C@H]1O` [DHO, dihydroouabain], the “effect of action potential trains on Cli” value in assay [1] is listed as “no effect”.
Turning to `CCC1(c2ccccc2)C(=O)NC(=O)NC1=O` [phenobarbital], in assay [2], the “experiments in which seizure frequency was significantly reduced” value is recorded as 70%. For the same molecule, the seizure power entry in assay [2] (bumetanide 10 μM or both, 120 min application, intact hippocampus of P4-6 rats) is “no significant effect”. The “animals with recurrent ictal-clonic activity / EEG clonic seizures” value in assay [3] (P9-12 rats, drug i.p. 10 min after KA (phenobarbital 25 mg/kg; bumetanide 0.1-0.2 mg/kg), 6 rats per group) is 100%. The “frequency of the ictal-tonic discharges” value in assay [3] (P9-12 rats, phenobarbital 25 mg/kg i.p.) was found to be 14±3 Hz. In addition, in assay [3] (setting [4]), the “duration of ictal-clonic phase” value was determined as 12 ± 1.1 s; the “duration of ictal-tonic phase” value is 5.2 ± 1.4 s; the “frequency of interictal spikes” value came to 1.56 ± 0.08 Hz; the “mean duration of single ictal episode (seizure including interictal and ictal phases)” value was 27.4 ± 2.6 s. Besides, in assay [3] (setting [4]), the “mean interval between seizures” value came out at 241.3 ± 45.8 s and the “rats with ictal-tonic pattern / tonic-clonic seizures” value turned out to be 33.3%. Also, in assay [3] (compared to pre-ictal baseline, phenobarbital 25 mg/kg or bumetanide 0.1-0.2 mg/kg i.p., saline control 444.7±136.3%), the “increase of power of EEG activity in the 20 minute window following seizure onset” value came to 248±40.8%.
